Measured values reported in PubChem BioAssay (NCI).
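Tested at 5 concentrations; 48 h exposure; 96-well plates; endpoints linearly interpolated, else capped at highest concentration. GI50 = concentration required for 50% inhibition of growth. TGI: total growth inhibition.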

How the values were obtained:
Assay in all cases: NCI tumour cell line growth inhibition, 48 h
786-0 renal = system: 786-0 renal
A498 renal = system: A498 renal
A549 NSCLC = system: A549 NSCLC
ACHN renal = system: ACHN renal
BT-549 breast = system: BT-549 breast
CAKI-1 renal = system: CAKI-1 renal
CCRF-CEM leukemia = system: CCRF-CEM leukemia
COLO 205 colon = system: COLO 205 colon
DU-145 prostate = system: DU-145 prostate
EKVX NSCLC = system: EKVX NSCLC
HCC-2998 colon = system: HCC-2998 colon
HCT-116 colon = system: HCT-116 colon
HCT-15 colon = system: HCT-15 colon
HL-60(TB) leukemia = system: HL-60(TB) leukemia
HOP-62 NSCLC = system: HOP-62 NSCLC
HS 578T breast = system: HS 578T breast
HT29 colon = system: HT29 colon
IGROV1 ovarian = system: IGROV1 ovarian
K-562 leukemia = system: K-562 leukemia
KM12 colon = system: KM12 colon
LOX IMVI melanoma = system: LOX IMVI melanoma
M14 melanoma = system: M14 melanoma
MALME-3M melanoma = system: MALME-3M melanoma
MCF7 breast = system: MCF7 breast
MDA-MB-231 breast = system: MDA-MB-231 breast
MDA-MB-435 = system: MDA-MB-435
MOLT-4 leukemia = system: MOLT-4 leukemia
NCI-H226 lung = system: NCI-H226 lung
NCI-H23 lung = system: NCI-H23 lung
NCI-H460 lung = system: NCI-H460 lung
NCI-H522 lung = system: NCI-H522 lung
NCI/ADR-RES ovarian = system: NCI/ADR-RES ovarian
OVCAR-3 ovarian = system: OVCAR-3 ovarian
OVCAR-4 ovarian = system: OVCAR-4 ovarian
OVCAR-5 ovarian = system: OVCAR-5 ovarian
OVCAR-8 ovarian = system: OVCAR-8 ovarian
PC-3 prostate = system: PC-3 prostate
RPMI-8226 leukemia = system: RPMI-8226 leukemia
RXF 393 renal = system: RXF 393 renal
SF-268 CNS = system: SF-268 CNS
SF-295 CNS = system: SF-295 CNS
SF-539 CNS = system: SF-539 CNS
SK-MEL-2 melanoma = system: SK-MEL-2 melanoma
SK-MEL-28 melanoma = system: SK-MEL-28 melanoma
SK-MEL-5 melanoma = system: SK-MEL-5 melanoma
SK-OV-3 ovarian = system: SK-OV-3 ovarian
SN12C renal = system: SN12C renal
SNB-19 CNS = system: SNB-19 CNS
SNB-75 CNS = system: SNB-75 CNS
SR leukemia = system: SR leukemia
SW-620 colon = system: SW-620 colon
T-47D breast = system: T-47D breast
TK-10 renal = system: TK-10 renal
U251 CNS = system: U251 CNS
UACC-257 melanoma = system: UACC-257 melanoma
UACC-62 melanoma = system: UACC-62 melanoma
UO-31 renal = system: UO-31 renal

For `COc1cc(/C=N/Nc2ncnc3c2cnn3-c2ccccc2)ccc1O`, the GI50 (786-0 renal) was > 16.2 µM, the TGI (786-0 renal) was > 25 µM and the GI50 (A498 renal) was > 25 µM. The TGI (A498 renal) was > 25 µM, the GI50 (A549 NSCLC) was > 20.5 µM and the TGI (A549 NSCLC) was > 25 µM. For the same compound, the GI50 (ACHN renal) was 7.93 µM, the TGI (ACHN renal) was > 25 µM and the GI50 (BT-549 breast) was > 25 µM. For the same compound, the TGI (BT-549 breast) was > 25 µM, the GI50 (CAKI-1 renal) was 2.52 µM and the TGI (CAKI-1 renal) was > 25 µM. The GI50 (CCRF-CEM leukemia) was 4.54 µM, the TGI (CCRF-CEM leukemia) was > 25 µM and the GI50 (COLO 205 colon) was > 14.6 µM. The TGI (COLO 205 colon) was > 25 µM, the GI50 (DU-145 prostate) was > 19.6 µM and the TGI (DU-145 prostate) was > 25 µM. For the same compound, the GI50 (EKVX NSCLC) was > 25 µM, the TGI (EKVX NSCLC) was > 25 µM and the GI50 (HCC-2998 colon) was 21.6 µM. The TGI (HCC-2998 colon) was > 25 µM, the GI50 (HCT-116 colon) was 8.18 µM and the TGI (HCT-116 colon) was > 25 µM. For the same compound, the GI50 (HCT-15 colon) was 4.06 µM, the TGI (HCT-15 colon) was > 25 µM and the GI50 (HL-60(TB) leukemia) was 11.7 µM. The TGI (HL-60(TB) leukemia) was > 25 µM, the GI50 (HOP-62 NSCLC) was 16.9 µM and the TGI (HOP-62 NSCLC) was > 25 µM. For the same compound, the GI50 (HS 578T breast) was 2.18 µM, the TGI (HS 578T breast) was > 25 µM and the GI50 (HT29 colon) was 8.18 µM. For the same compound, the TGI (HT29 colon) was > 24.1 µM, the GI50 (IGROV1 ovarian) was 5.03 µM and the TGI (IGROV1 ovarian) was > 22.8 µM. For the same compound, the GI50 (K-562 leukemia) was 2.85 µM, the TGI (K-562 leukemia) was > 25 µM and the GI50 (KM12 colon) was 1.64 µM. The TGI (KM12 colon) was > 25 µM, the GI50 (LOX IMVI melanoma) was 10.3 µM and the TGI (LOX IMVI melanoma) was > 25 µM. For the same compound, the GI50 (M14 melanoma) was > 21.4 µM, the TGI (M14 melanoma) was > 25 µM and the GI50 (MALME-3M melanoma) was > 25 µM. For the same compound, the TGI (MALME-3M melanoma) was > 25 µM, the GI50 (MCF7 breast) was 6.54 µM and the TGI (MCF7 breast) was > 25 µM. For the same compound, the GI50 (MDA-MB-231 breast) was 2.34 µM, the TGI (MDA-MB-231 breast) was > 25 µM and the GI50 (MDA-MB-435) was 1.41 µM. The TGI (MDA-MB-435) was > 15.7 µM, the GI50 (MOLT-4 leukemia) was > 25 µM and the TGI (MOLT-4 leukemia) was > 25 µM. The GI50 (NCI-H226 lung) was > 25 µM, the TGI (NCI-H226 lung) was > 25 µM and the GI50 (NCI-H23 lung) was > 25 µM. The TGI (NCI-H23 lung) was > 25 µM, the GI50 (NCI-H460 lung) was 12.9 µM and the TGI (NCI-H460 lung) was > 25 µM. The GI50 (NCI-H522 lung) was 2.27 µM, the TGI (NCI-H522 lung) was > 17.3 µM and the GI50 (NCI/ADR-RES ovarian) was > 20.9 µM. The TGI (NCI/ADR-RES ovarian) was > 25 µM, the GI50 (OVCAR-3 ovarian) was 7.18 µM and the TGI (OVCAR-3 ovarian) was > 25 µM. For the same compound, the GI50 (OVCAR-4 ovarian) was 15.5 µM, the TGI (OVCAR-4 ovarian) was > 25 µM and the GI50 (OVCAR-5 ovarian) was > 25 µM. The TGI (OVCAR-5 ovarian) was > 25 µM, the GI50 (OVCAR-8 ovarian) was > 14.7 µM and the TGI (OVCAR-8 ovarian) was > 25 µM. The GI50 (PC-3 prostate) was 5.24 µM, the TGI (PC-3 prostate) was > 25 µM and the GI50 (RPMI-8226 leukemia) was > 25 µM. The TGI (RPMI-8226 leukemia) was > 25 µM, the GI50 (RXF 393 renal) was 4.33 µM and the TGI (RXF 393 renal) was > 25 µM. For the same compound, the GI50 (SF-268 CNS) was > 18.4 µM, the TGI (SF-268 CNS) was > 25 µM and the GI50 (SF-295 CNS) was > 15.5 µM. For the same compound, the TGI (SF-295 CNS) was > 25 µM, the GI50 (SF-539 CNS) was 8.84 µM and the TGI (SF-539 CNS) was > 25 µM. It also gave a GI50 (SK-MEL-2 melanoma) of 5.85 µM, a TGI (SK-MEL-2 melanoma) of 20.6 µM and a GI50 (SK-MEL-28 melanoma) of 18.5 µM. The TGI (SK-MEL-28 melanoma) was > 25 µM, the GI50 (SK-MEL-5 melanoma) was 12.6 µM and the TGI (SK-MEL-5 melanoma) was > 25 µM. For the same compound, the GI50 (SK-OV-3 ovarian) was 9.88 µM, the TGI (SK-OV-3 ovarian) was > 25 µM and the GI50 (SN12C renal) was > 25 µM. For the same compound, the TGI (SN12C renal) was > 25 µM, the GI50 (SNB-19 CNS) was > 25 µM and the TGI (SNB-19 CNS) was > 25 µM. The GI50 (SNB-75 CNS) was 1.1 µM, the TGI (SNB-75 CNS) was > 7.39 µM and the GI50 (SR leukemia) was 6.09 µM. The TGI (SR leukemia) was > 25 µM, the GI50 (SW-620 colon) was 11.1 µM and the TGI (SW-620 colon) was > 25 µM. For the same compound, the GI50 (T-47D breast) was 7.64 µM, the TGI (T-47D breast) was > 25 µM and the GI50 (TK-10 renal) was > 19.2 µM. For the same compound, the TGI (TK-10 renal) was > 25 µM, the GI50 (U251 CNS) was 11.6 µM and the TGI (U251 CNS) was > 25 µM. For the same compound, the GI50 (UACC-257 melanoma) was > 25 µM, the TGI (UACC-257 melanoma) was > 25 µM and the GI50 (UACC-62 melanoma) was 15.6 µM. For the same compound, the TGI (UACC-62 melanoma) was > 25 µM and the TGI (UO-31 renal) was > 25 µM.
